From US8168597B2, “Method for treating cystic fibrosis” (Inspire Pharmaceuticals, Inc., priority 2008, dated 2012)

Tested on: patients with mild CF lung disease
Test: Multi-center, double-blind, randomized efficacy and safety study; change in lung function (FEV1) from baseline to Week 24
Type: in vivo, human
Conditions: for FEV1 Change from baseline in Liters, Mean (Table 2): subgroups that did not take pulmozyme or inhaled antibiotics; for FEV1 Change from baseline in Liters, Mean (Table 3): pulmozyme/macrolide subgroups
Method: This is a multi-center, double-blind, randomized, efficacy and safety study of denufosol in patients with mild CF lung disease. Approximately 350 patients were enrolled and randomly assigned to receive one of two treatments, 60 mg denufosol TID or placebo TID, with approximately 175 patients assigned to each treatment group. Patients were administered study drug (denufosol) or placebo using the PARI LC STAR™ nebulizer and PART PRONEB Ultra™ compressor. At the end of the 24-week double-blind, placebo-controlled treatment period, placebo patients received 60 mg denufosol for a 24-week safety extension period. All patients on denufosol during the first 24 weeks continued to receive denufosol during the 24-week safety extension. Upon completion of study participation or discontinuation from study treatment, all patients were scheduled for a 1-week follow-up visit.
In general, CF patients took many medications as their usual standard of care. This study was designed to randomly assign patients either to denufosol or placebo on top of their usual standard of care. […] Patients were instructed whenever possible to use these medications consistently throughout the study.
All patients were instructed to inhale the study drug using normal tidal breathing via the PARI LC STAR™ reusable nebulizer and the PARI PRONEB™ Ultra compressor. A dose was considered complete after 15 minutes of inhalation or when the nebulizer sputters. Study drug was taken TID at the same time each day.
Primary efficacy endpoint was change in lung function, as measured by FEV1 (L), from baseline to Week 24 end point. Missing Week 24 data for patients who withdrew prior to Week 24 were imputed from the last available observation carried forward. Secondary efficacy endpoints included the following: time to first pulmonary exacerbation during the 24-week placebo-controlled treatment period; incidence of pulmonary exacerbations during the 24-week placebo-controlled treatment period; number of pulmonary exacerbations/time at risk (incidence density) during the 24-week placebo-controlled treatment period; change in lung function, as measured by FEV1 (L) from baseline to Weeks 4 and 12, and FVC (L) and FEF25%-75% (L/sec) from baseline to Weeks 4, 12, 24, and the end point. Other secondary efficacy endpoints include incidence of IV antibiotic use during the 24-week placebo-controlled treatment period; number of days of IV antibiotic use during the 24-week placebo-controlled treatment period; incidence of new use of antipseudomonal antibiotics during the 24-week placebo-controlled treatment period; incidence of hospitalizations/ER visits for a respiratory-related complaint during the 24-week placebo-controlled treatment period; number of days spent in the hospital for a respiratory-related complaint during the 24-week placebo-controlled treatment period; changes from baseline to Weeks 12 and 24 in Health-related Quality of Life as measured by the Cystic Fibrosis Questionnare and the Feeling Thermometer; and changes in utility assessment from baseline to Weeks 12 and 24 as measured by the Health Utilities Index; number of CF-related days lost from work or school during the 24-week placebo-controlled treatment period; and responses at Week 24 to the Patient Questionnaire.

Molecule	FEV1 Change from baseline in Liters, Mean (Table 2) (baseline to Week 24) [L]	adjusted means for change in lung function, as measured by FEV1, from baseline to Week 24 (macrolide users (97% azithromycin), 60 mg denufosol TID by inhalation, p-value 0.047 vs placebo group) [L]	improvement in FEV1 change in the macrolide group when treated with denufosol (vs placebo group) (macrolide users, baseline to Week 24)	FEV1 Change from baseline in Liters, Mean (Table 3) (baseline to Week 24) [L]
Nc1ccn([C@H]2C[C@H](O)[C@@H](COP(=O)(O)OP(=O)(O)OP(=O)(O)OP(=O)(O)OC[C@H]3O[C@@H](n4ccc(=O)[nH]c4=O)[C@H](O)[C@@H]3O)O2)c(=O)n1 [Denufosol, P^1-(uridine 5′-)-P^4-(2′-deoxycytidine 5′-) tetraphosphate]	0.0494	0.0288	+0.0745 L	–
CC[C@H]1OC(=O)[C@H](C)[C@@H](O[C@H]2C[C@@](C)(OC)[C@@H](O)[C@H](C)O2)[C@H](C)[C@@H](O[C@@H]2O[C@H](C)C[C@H](N(C)C)[C@H]2O)[C@](C)(O)C[C@@H](C)CN(C)[C@H](C)[C@@H](O)[C@]1(C)O [Macrolide (Azithromycin), azithromycin, reference compound]	0.0430	–	–	0.0430
Pulmozyme: CF medication taken as usual standard of care (alfa dornase) (protein, UniProt P24855 23-282, looked up) Deoxyribonuclease-1: LKIAAFNIQTFGETKMSNATLVSYIVQILSRYDIALVQEVRDSHLTAVGKLLDNLNQDAPDTYHYVVSEPLGRNSYKERYLFVYRPDQVSAVDSYYYDDGCEPCGNDTFNREPAIVRFFSRFTEVREFAIVPLHAAPGDAVAEIDALYDVYLDVQEKWGLEDVMLMGDFNAGCSYVRPSQWSSIRLWTSPTFQWLIPDSADTTATPTHCAYDRIVVAGMLLRGAVVPDSALPFNFQAAYGLSDQLAQAISDHYPVEVMLK	–	–	–	0.0659
